{"source": "patent US6737383B1", "about": "“Herbicidal oxadiazolidines” (priority 1999, dated 2004)", "key": {"[1]": {"test_system": "barnyardgrass", "assay": "Test A barnyardgrass", "format": "in vivo, Echinochloa crus-galli", "conditions": "0 to 10 scale where 0 is no effect and 10 is complete control", "in_short": "(§1)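 Injury scored visually after about eleven greenhouse days against untreated plants, 0 = no effect, 10 = complete control. Compounds, formulated in surfactant-containing non-phytotoxic solvent, were applied as preemergence soil drench to sandy loam plantings and as postemergence runoff spray at the 1–2 leaf stage.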"}, "[2]": {"test_system": "velvetleaf", "assay": "Test A velvetleaf", "format": "in vivo, Abutilon theophrasti", "conditions": "0 to 10 scale where 0 is no effect and 10 is complete control", "in_short": "as §1"}, "[3]": {"test_system": "barnyardgrass", "assay": "Test C postemergence barnyardgrass", "format": "in vivo, Echinochloa crus-galli", "conditions": "0 to 100 scale, 0 no effect, 100 complete control", "method": "(§2) Compounds evaluated in this test were formulated in a non-phytotoxic solvent mixture which included a surfactant and applied to plants that were grown for various periods of time before treatment (postemergence application). A mixture of sandy loam soil and greenhouse potting mix in a 60:40 ratio was used for the postemergence test.\n(§3) Plantings of these crops and weed species were adjusted to produce plants of appropriate size for the postemergence test. All plant species were grown using normal greenhouse practices. Crop and weed species include arrowleaf sida (Sida rhombifolia), barnyardgrass (Echinochloa crus-galli), cocklebur (Xanthium strumarium), common ragweed (Ambrosia elatior), corn (Zea mays), cotton (Gossypium hirsutum), eastern black nightshade (Solanum ptycanthum), fall panicum (Panicum dichotomiflorum), field bindweed (Convolvulus arvensis), giant foxtail (Setaria faberii), hairy beggarticks (Bidens pilosa), ivyleaf morningglory (Ipomoea hederacea), johnsongrass (Sorghum halepense), ladysthumb smartweed (Polygonum persicaria), lambsquarters (Chenopodium album), large crabgrass (Digitaria sanguinalis), purple nutsedge (Cyperus rotundus), redroot pigweed (Amaranthus retroflexus), soybean (Glycine max), surinam grass (Brachiaria decumbens), velvetleaf (Abutilon theophrasti) and wild poinsettia (Euphorbia heterophylla).\n(§4) Treated plants and untreated controls were maintained in a greenhouse for approximately 14, to 21 days, after which all treated plants were compared to untreated controls and visually evaluated. Plant response ratings, summarized in Table C, were based upon a 0 to 100 scale where 0 was no effect and 100 was complete control. A dash response (−) means no test result."}, "[4]": {"test_system": "cotton", "assay": "Test C postemergence cotton", "format": "in vivo, Gossypium hirsutum", "conditions": "0 to 100 scale, 0 no effect, 100 complete control", "method": "as §2, §3, §4"}, "[5]": {"test_system": "eastern black nightshade", "assay": "Test C postemergence eastern black nightshade", "format": "in vivo, Solanum ptycanthum", "conditions": "0 to 100 scale, 0 no effect, 100 complete control", "in_short": "(§5)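 Foliar postemergence treatment of greenhouse plants grown in 60:40 sandy loam:potting mix; compounds delivered in non-phytotoxic solvent with surfactant. Evaluation is visual, 0–100, after ~14–21 d.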"}, "[6]": {"test_system": "fall panicum", "assay": "Test C postemergence fall panicum", "format": "in vivo, Panicum dichotomiflorum", "conditions": "0 to 100 scale, 0 no effect, 100 complete control", "in_short": "as §5"}, "[7]": {"test_system": "field bindweed", "assay": "Test C postemergence field bindweed", "format": "in vivo, Convolvulus arvensis", "conditions": "0 to 100 scale, 0 no effect, 100 complete control", "method": "as §2, §3, §4"}, "[8]": {"test_system": "ivyleaf morningglory", "assay": "Test C postemergence ivyleaf morningglory", "format": "in vivo, Ipomoea hederacea", "conditions": "0 to 100 scale, 0 no effect, 100 complete control", "in_short": "as §5"}, "[9]": {"test_system": "ladysthumb smartweed", "assay": "Test C postemergence ladysthumb smartweed", "format": "in vivo, Polygonum persicaria", "conditions": "0 to 100 scale, 0 no effect, 100 complete control", "method": "as §2, §3, §4"}, "[10]": {"test_system": "lambsquarters", "assay": "Test C postemergence lambsquarters", "format": "in vivo, Chenopodium album", "conditions": "0 to 100 scale, 0 no effect, 100 complete control", "method": "as §2, §3, §4"}, "[11]": {"test_system": "redroot pigweed", "assay": "Test C postemergence redroot pigweed", "format": "in vivo, Amaranthus retroflexus", "conditions": "0 to 100 scale, 0 no effect, 100 complete control", "in_short": "as §5"}, "[12]": {"test_system": "soybean", "assay": "Test C postemergence soybean", "format": "in vivo, Glycine max", "conditions": "0 to 100 scale, 0 no effect, 100 complete control", "method": "as §2, §3, §4"}, "[13]": {"test_system": "velvetleaf", "assay": "Test C postemergence velvetleaf", "format": "in vivo, Abutilon theophrasti", "conditions": "0 to 100 scale, 0 no effect, 100 complete control", "in_short": "as §5"}}}
{"smiles": "CCN(CC)C(=O)n1oc(=O)n(-c2ccc(OC)cc2)c1=O", "note": "[Compound 1]", "values": [{"measurement": "Plant response rating, Barnyardgrass", "setting": "[1]; Postemergence, Rate 1000 g/ha", "result": 8}, {"measurement": "Plant response rating, Barnyardgrass", "setting": "[1]; Pre-emergence, Rate 2000 g/ha", "result": 9}, {"measurement": "Plant response rating, Velvetleaf", "setting": "[2]; Postemergence, Rate 1000 g/ha", "result": 0}, {"measurement": "Plant response rating, Velvetleaf", "setting": "[2]; Pre-emergence, Rate 2000 g/ha", "result": 0}]}
{"smiles": "Cc1ccccc1-n1c(=O)on(C(=O)N(C2=CCOCC2)C(C)C)c1=O", "note": "[Compound 10]", "values": [{"measurement": "Plant response rating, Barnyardgrass", "setting": "[1]; Postemergence, Rate 1000 g/ha", "result": 9}, {"measurement": "Plant response rating, Barnyardgrass", "setting": "[1]; Pre-emergence, Rate 2000 g/ha", "result": 10}, {"measurement": "Plant response rating, Velvetleaf", "setting": "[2]; Postemergence, Rate 1000 g/ha", "result": 4}, {"measurement": "Plant response rating, Velvetleaf", "setting": "[2]; Pre-emergence, Rate 2000 g/ha", "result": 2}]}
{"smiles": "CC(C)Oc1cc(-n2c(=O)on(C(=O)N(c3ccc(F)cc3)C(C)C)c2=O)c(Cl)cc1Cl", "note": "[Compound 43]", "values": [{"measurement": "Plant response rating, Barnyardgrass", "setting": "[1]; Postemergence, Rate 1000 g/ha", "result": 0}, {"measurement": "Plant response rating, Barnyardgrass", "setting": "[1]; Pre-emergence, Rate 2000 g/ha", "result": 0}, {"measurement": "Plant response rating, Velvetleaf", "setting": "[2]; Postemergence, Rate 1000 g/ha", "result": 0}, {"measurement": "Plant response rating, Velvetleaf", "setting": "[2]; Pre-emergence, Rate 2000 g/ha", "result": 0}]}
{"smiles": "CC(C)N(C(=O)n1oc(=O)n(Cc2cccs2)c1=O)c1ccc(F)cc1", "note": "[Compound 80]", "values": [{"measurement": "Plant response rating, Barnyardgrass", "setting": "[3]; Rate 140 g/ha", "result": 0}, {"measurement": "Plant response rating, Barnyardgrass", "setting": "[3]; Rate 280 g/ha", "result": 10}, {"measurement": "Plant response rating, Barnyardgrass", "setting": "[3]; Rate 560 g/ha", "result": 20}, {"measurement": "Plant response rating, Barnyardgrass", "setting": "[3]; Rate 1120 g/ha", "result": 20}, {"measurement": "Plant response rating Cotton", "setting": "[4]; Rate 140 g/ha", "result": 20}, {"measurement": "Plant response rating Cotton", "setting": "[4]; Rate 280 g/ha", "result": 35}, {"measurement": "Plant response rating Cotton", "setting": "[4]; Rate 560 g/ha", "result": 40}, {"measurement": "Plant response rating Cotton", "setting": "[4]; Rate 1120 g/ha", "result": 40}, {"measurement": "Plant response rating E. blacknightsh", "setting": "[5]; Rate 140 g/ha", "result": 0}, {"measurement": "Plant response rating E. blacknightsh", "setting": "[5]; Rate 280 g/ha", "result": 5}, {"measurement": "Plant response rating E. blacknightsh", "setting": "[5]; Rate 560 g/ha", "result": 50}, {"measurement": "Plant response rating E. blacknightsh", "setting": "[5]; Rate 1120 g/ha", "result": 60}, {"measurement": "Plant response rating Fall panicum", "setting": "[6]; Rate 140 g/ha", "result": 0}, {"measurement": "Plant response rating Fall panicum", "setting": "[6]; Rate 280 g/ha", "result": 0}, {"measurement": "Plant response rating Fall panicum", "setting": "[6]; Rate 560 g/ha", "result": 0}, {"measurement": "Plant response rating Fall panicum", "setting": "[6]; Rate 1120 g/ha", "result": 10}, {"measurement": "Plant response rating Field bindweed", "setting": "[7]; Rate 140 g/ha", "result": 0}, {"measurement": "Plant response rating Field bindweed", "setting": "[7]; Rate 280 g/ha", "result": 0}, {"measurement": "Plant response rating Field bindweed", "setting": "[7]; Rate 560 g/ha", "result": 0}, {"measurement": "Plant response rating Field bindweed", "setting": "[7]; Rate 1120 g/ha", "result": 0}, {"measurement": "Plant response rating I. morningglory", "setting": "[8]; Rate 140 g/ha", "result": 0}, {"measurement": "Plant response rating I. morningglory", "setting": "[8]; Rate 280 g/ha", "result": 10}, {"measurement": "Plant response rating I. morningglory", "setting": "[8]; Rate 560 g/ha", "result": 30}, {"measurement": "Plant response rating I. morningglory", "setting": "[8]; Rate 1120 g/ha", "result": 50}, {"measurement": "Plant response rating Ladysthumb", "setting": "[9]; Rate 140 g/ha", "result": 10}, {"measurement": "Plant response rating Ladysthumb", "setting": "[9]; Rate 280 g/ha", "result": 10}, {"measurement": "Plant response rating Ladysthumb", "setting": "[9]; Rate 560 g/ha", "result": 70}, {"measurement": "Plant response rating Ladysthumb", "setting": "[9]; Rate 1120 g/ha", "result": 70}, {"measurement": "Plant response rating, Lambsquarters", "setting": "[10]; Rate 140 g/ha", "result": 0}, {"measurement": "Plant response rating, Lambsquarters", "setting": "[10]; Rate 280 g/ha", "result": 15}, {"measurement": "Plant response rating, Lambsquarters", "setting": "[10]; Rate 560 g/ha", "result": 20}, {"measurement": "Plant response rating, Lambsquarters", "setting": "[10]; Rate 1120 g/ha", "result": 20}, {"measurement": "Plant response rating, Redroot pigweed", "setting": "[11]; Rate 280 g/ha", "result": 0}, {"measurement": "Plant response rating, Redroot pigweed", "setting": "[11]; Rate 560 g/ha", "result": 50}, {"measurement": "Plant response rating, Redroot pigweed", "setting": "[11]; Rate 1120 g/ha", "result": 80}, {"measurement": "Plant response rating, Soybean", "setting": "[12]; Rate 140 g/ha", "result": 5}, {"measurement": "Plant response rating, Soybean", "setting": "[12]; Rate 280 g/ha", "result": 20}, {"measurement": "Plant response rating, Soybean", "setting": "[12]; Rate 560 g/ha", "result": 60}, {"measurement": "Plant response rating, Velvetleaf", "setting": "[13]; Rate 140 g/ha", "result": 5}, {"measurement": "Plant response rating, Velvetleaf", "setting": "[13]; Rate 280 g/ha", "result": 5}, {"measurement": "Plant response rating, Velvetleaf", "setting": "[13]; Rate 560 g/ha", "result": 20}, {"measurement": "Plant response rating, Velvetleaf", "setting": "[13]; Rate 1120 g/ha", "result": 20}]}
